Data as given in patent US20090318502A1, “Pharmaceutical Compositions Comprising a Hypoglycemic Agent and Methods of Using Same” (INTRANASAL THERAPEUTICS, INC., priority 2006, published 2009).

How the values were obtained:
[1] = Storage stability and appearance of intranasal repaglinide formulations; format: physicochemical; settings: solution pH
Method: In one embodiment, a composition of the invention comprises at least 85%, at least 87%, at least 90%, at least 92%, at least 95%, at least 97%, or at least 99% of the original hypoglycemic agent (e.g., repaglinide) after storage (closed or open vessel) at 40° C. and 75% relative humidity for a period of at least 1 week, at least 2 weeks, at least 3 weeks, at least 4 weeks, at least 6 weeks, at least 8 weeks, at least 10 weeks, at least 15 weeks, at least 20 weeks, at least 25 weeks, at least 30 weeks, at least 35 weeks, at least 40 weeks, at least 45 weeks, or at least 50 weeks The formulations described in Table 1 below have shown good stability for a period of about one month. In particular, the formulations described in Example 1 below have shown no precipitation and have remained clear and colorless for a period of about one month.

[2] = Solubility of repaglinide in formulation vehicles; format: physicochemical; settings: in 100% methoxy-polyethylene glycol, 350

CCOc1cc(CC(=O)N[C@@H](CC(C)C)c2ccccc2N2CCCCC2)ccc1C(=O)O [repaglinide, Repaglinide]
pH of solutions in which repaglinide was often more stable [1]: less than or equal to 9 | solubility of repaglinide [2]: poorly soluble or insoluble
